According to PubChem BioAssay AID1963958 (Molecular Pharmacology Branch, DTP, NCI, 2024):

System: MDA-MB-231 multicell spheroids, viability
Assay: Anticancer human tumor MDA-MB-231 cell line growth inhibition [PI3K];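 further: spheroids exposed to agents for seven days before reading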;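 on viability, T/C: percent of vehicle control luminescence with DMSO treated spheroids as 100%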
Settings: for IC50: curve of first compound; for viability, T/C: stronger effect = lower value; active means viability on the fitted dose curve at most 10% of control; inactive means the rest
Outline: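 Viability of mixed-cell spheroids was determined after exposure to pairwise combinations, one partner being inavolisib, alpelisib, duvelisib or copanlisib. Highest tested concentration matched clinical Cmax where known and 10 microM where not, descending in half-log steps.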

[1] = second compound 0.0316 µM, first compound 0.0316 µM
[2] = second compound 0.0316 µM, first compound 0.1 µM
[3] = second compound 0.1 µM, first compound 0.0316 µM
[4] = second compound 0.1 µM, first compound 0.1 µM
[5] = second compound 0.316 µM, first compound 0.0316 µM
[6] = second compound 0.316 µM, first compound 0.1 µM
[7] = second compound 1 µM, first compound 0.0316 µM
[8] = second compound 1 µM, first compound 0.1 µM
[9] = second compound 3.16 µM, first compound 0.0316 µM
[10] = second compound 3.16 µM, first compound 0.1 µM
[11] = second compound 10 µM, first compound 0.0316 µM
[12] = second compound 10 µM, first compound 0.1 µM
[13] = second compound 0.0316 µM, first compound 0.316 µM
[14] = second compound 0.0316 µM, first compound 1 µM
[15] = second compound 0.0316 µM, first compound 3.16 µM
[16] = second compound 0.0316 µM, first compound 10 µM
[17] = second compound 0.1 µM, first compound 0.316 µM
[18] = second compound 0.1 µM, first compound 1 µM
[19] = second compound 0.1 µM, first compound 3.16 µM
[20] = second compound 0.1 µM, first compound 10 µM
[21] = second compound 0.316 µM, first compound 0.316 µM
[22] = second compound 0.316 µM, first compound 1 µM
[23] = second compound 0.316 µM, first compound 3.16 µM
[24] = second compound 0.316 µM, first compound 10 µM
[25] = second compound 1 µM, first compound 0.316 µM
[26] = second compound 1 µM, first compound 1 µM
[27] = second compound 1 µM, first compound 3.16 µM
[28] = second compound 1 µM, first compound 10 µM
[29] = second compound 3.16 µM, first compound 0.316 µM
[30] = second compound 3.16 µM, first compound 1 µM
[31] = second compound 3.16 µM, first compound 3.16 µM
[32] = second compound 3.16 µM, first compound 10 µM
[33] = second compound 10 µM, first compound 0.316 µM
[34] = second compound 10 µM, first compound 1 µM
[35] = second compound 10 µM, first compound 3.16 µM
[36] = second compound 10 µM, first compound 10 µM

CC(=O)c1c(C)c2cnc(Nc3ccc(N4CCNCC4)cn3)nc2n(C2CCCC2)c1=O + Cc1nc(NC(=O)N2CCCC2C(N)=O)sc1-c1ccnc(C(C)(C)C(F)(F)F)c1
0.0697 µM: IC50 (second compound 0.0316 µM)
0.015 µM: IC50 (second compound 10 µM)
0.019 µM: IC50 (second compound 3.16 µM)
0.0273 µM: IC50 (second compound 0.316 µM)
0.052 µM: IC50 (second compound 0.1 µM)
inactive: viability, T/C (second compound 0.0316 µM, first compound 0.000316 µM) 98.2% | viability, T/C (second compound 0.0316 µM, first compound 0.001 µM) 87.3% | viability, T/C (second compound 0.0316 µM, first compound 0.00316 µM) 92.4% | viability, T/C (second compound 0.0316 µM, first compound 0.01 µM) 82.7% | viability, T/C [1] 66.3% | viability, T/C [2] 42.5% | viability, T/C (second compound 0.1 µM, first compound 0.000316 µM) 79.2% | viability, T/C (second compound 0.1 µM, first compound 0.001 µM) 85.5% | viability, T/C (second compound 0.1 µM, first compound 0.00316 µM) 81.4% | viability, T/C (second compound 0.1 µM, first compound 0.01 µM) 73.4% | viability, T/C [3] 59.7% | viability, T/C [4] 37.8% | viability, T/C (second compound 0.316 µM, first compound 0.000316 µM) 73.8% | viability, T/C (second compound 0.316 µM, first compound 0.001 µM) 72.8% | viability, T/C (second compound 0.316 µM, first compound 0.00316 µM) 71.8% | viability, T/C (second compound 0.316 µM, first compound 0.01 µM) 60.9% | viability, T/C [5] 48.8% | viability, T/C [6] 34% | viability, T/C (second compound 1 µM, first compound 0.000316 µM) 70.5% | viability, T/C (second compound 1 µM, first compound 0.001 µM) 64.9% | viability, T/C (second compound 1 µM, first compound 0.00316 µM) 63% | viability, T/C (second compound 1 µM, first compound 0.01 µM) 59% | viability, T/C [7] 46% | viability, T/C [8] 29.6% | viability, T/C (second compound 3.16 µM, first compound 0.000316 µM) 67.2% | viability, T/C (second compound 3.16 µM, first compound 0.001 µM) 66.6% | viability, T/C (second compound 3.16 µM, first compound 0.00316 µM) 61.1% | viability, T/C (second compound 3.16 µM, first compound 0.01 µM) 56.3% | viability, T/C [9] 44.8% | viability, T/C [10] 33.2% | viability, T/C (second compound 10 µM, first compound 0.000316 µM) 64% | viability, T/C (second compound 10 µM, first compound 0.001 µM) 60.9% | viability, T/C (second compound 10 µM, first compound 0.00316 µM) 58.4% | viability, T/C (second compound 10 µM, first compound 0.01 µM) 52.4% | viability, T/C [11] 45.1% | viability, T/C [12] 31%
0.022 µM: IC50 (second compound 1 µM)

CCCS(=O)(=O)Nc1ccc(F)c(C(=O)c2c[nH]c3ncc(-c4ccc(Cl)cc4)cc23)c1F + Cc1nc(NC(=O)N2CCCC2C(N)=O)sc1-c1ccnc(C(C)(C)C(F)(F)F)c1
4.68 µM: IC50 (second compound 0.0316 µM)
3.51 µM: IC50 (second compound 0.1 µM)
1.54 µM: IC50 (second compound 1 µM)
2.52 µM: IC50 (second compound 0.316 µM)
0.359 µM: IC50 (second compound 10 µM)
1.17 µM: IC50 (second compound 3.16 µM)
inactive: viability, T/C [1] 102% | viability, T/C [2] 102% | viability, T/C [13] 85.5% | viability, T/C [14] 80% | viability, T/C [15] 59.4% | viability, T/C [16] 31.7% | viability, T/C [3] 90.6% | viability, T/C [4] 96.6% | viability, T/C [17] 83.6% | viability, T/C [18] 74.1% | viability, T/C [19] 51.6% | viability, T/C [20] 32.6% | viability, T/C [5] 80.4% | viability, T/C [6] 80.8% | viability, T/C [21] 72.7% | viability, T/C [22] 67.2% | viability, T/C [23] 45.3% | viability, T/C [24] 31.4% | viability, T/C [7] 72.3% | viability, T/C [8] 66.6% | viability, T/C [25] 64.8% | viability, T/C [26] 57.5% | viability, T/C [27] 38.9% | viability, T/C [28] 29% | viability, T/C [9] 68.8% | viability, T/C [10] 64.8% | viability, T/C [29] 62.3% | viability, T/C [30] 51.2% | viability, T/C [31] 38.8% | viability, T/C [32] 25.9% | viability, T/C [11] 61.1% | viability, T/C [12] 56% | viability, T/C [33] 50.3% | viability, T/C [34] 43% | viability, T/C [35] 36.8% | viability, T/C [36] 22.3%

CNC(=O)c1ccc(N2C(=S)N(c3ccc(C#N)c(C(F)(F)F)c3)C(=O)C2(C)C)cc1F + Cc1nc(NC(=O)N2CCCC2C(N)=O)sc1-c1ccnc(C(C)(C)C(F)(F)F)c1
> 10 µM: IC50 (second compound 0.0316 µM) | IC50 (second compound 0.1 µM) | IC50 (second compound 0.316 µM) | IC50 (second compound 1 µM) | IC50 (second compound 3.16 µM) | IC50 (second compound 10 µM)
inactive: viability, T/C [1] 100% | viability, T/C [2] 94% | viability, T/C [13] 93.3% | viability, T/C [14] 95.7% | viability, T/C [15] 93.8% | viability, T/C [16] 77.2% | viability, T/C [3] 86.1% | viability, T/C [4] 88.3% | viability, T/C [17] 89.9% | viability, T/C [18] 85.6% | viability, T/C [19] 76.5% | viability, T/C [20] 57.1% | viability, T/C [5] 74.3% | viability, T/C [6] 77.5% | viability, T/C [21] 74.3% | viability, T/C [22] 76.8% | viability, T/C [23] 77.2% | viability, T/C [24] 57.8% | viability, T/C [7] 71.5% | viability, T/C [8] 69.8% | viability, T/C [25] 68.3% | viability, T/C [26] 65.9% | viability, T/C [27] 69.5% | viability, T/C [28] 57.6% | viability, T/C [9] 68.4% | viability, T/C [10] 68.8% | viability, T/C [29] 68.2% | viability, T/C [30] 68.7% | viability, T/C [31] 66.4% | viability, T/C [32] 51.4% | viability, T/C [11] 62.1% | viability, T/C [12] 62.5% | viability, T/C [33] 63.2% | viability, T/C [34] 66.4% | viability, T/C [35] 64.1% | viability, T/C [36] 49.9%
